Experimental data: patent US11897904B2, “Herbicidally active bicyclic benzamides” (Bayer Aktiengesellschaft, priority 2017, dated 2024)

What was measured:
ABUTH [1] = experiment: Post-emergence herbicidal action; format: in vivo, Abutilon theophrasti; settings: post-emergence, rated visually after about 3 weeks vs untreated controls
Experimental: (§1) 2. Post-Emergence Herbicidal Action and Crop Plant Compatibility
(§2) Seeds of monocotyledonous and dicotyledonous weeds and crop plants are placed in sandy loam in plastic or organic planting pots, covered with soil and cultivated in a greenhouse under controlled growth conditions. 2 to 3 weeks after sowing, the test plants are treated at the one-leaf stage. The compounds of the invention, formulated in the form of wettable powders (WP) or as emulsion concentrates (EC), are then sprayed onto the green parts of the plants as aqueous suspension or emulsion with addition of 0.5% additive at a water application rate of […] (converted). After the test plants had been kept in the greenhouse under optimum growth conditions for about 3 weeks, the activity of the preparations is rated visually in comparison to untreated controls. The tables below show the herbicidal activity of numerous compounds according to the invention against important harmful plants. For example, 100% activity=the plants have died, 0% activity=like control plants.

VERPE [2] = experiment: Pre-emergence herbicidal action; format: in vivo, Veronica persica; settings: 320 g/ha, scored visually after about 3 weeks vs untreated controls
From the text: (§3) 1. Pre-Emergence Herbicidal Action and Crop Plant Compatibility
(§4) Seeds of monocotyledonous and dicotyledonous weed plants and crop plants are placed in plastic or organic planting pots and covered with soil. The compounds of the invention, formulated in the form of wettable powders (WP) or as emulsion concentrates (EC), are then applied onto the surface of the covering soil as aqueous suspension or emulsion with addition of 0.5% additive at a water application rate of 600 l/ha (converted). After the treatment, the pots are placed in a greenhouse and kept under good growth conditions for the trial plants. After about 3 weeks, the effect of the preparations is scored visually in comparison with untreated controls as percentages. The tables below show the herbicidal activity of numerous compounds according to the invention against important harmful plants. For example, 100% activity=the plants have died, 0% activity=like control plants.

AMARE [3] = experiment: Post-emergence herbicidal action; format: in vivo, Amaranthus retroflexus; settings: rated visually after about 3 weeks vs untreated controls
Experimental: as §1, §2

PHBPU = experiment: Post-emergence herbicidal action; format: in vivo, Ipomoea purpurea; settings: rated visually after about 3 weeks vs untreated controls
Experimental: as §1, §2

AMARE [4] = experiment: Pre-emergence herbicidal action; format: in vivo, Amaranthus retroflexus; settings: scored visually after about 3 weeks vs untreated controls
From the text: as §3, §4

STEME [5] = experiment: Post-emergence herbicidal action; format: in vivo, Stellaria media; settings: rated visually after about 3 weeks vs untreated controls
Experimental: as §1, §2

VERPE [6] = experiment: Post-emergence herbicidal action; format: in vivo, Veronica persica; settings: 80 g/ha, rated visually after about 3 weeks vs untreated controls
Experimental: as §1, §2

MATIN [7] = experiment: Post-emergence herbicidal action; format: in vivo, Matricaria inodora; settings: 80 g/ha, rated visually after about 3 weeks vs untreated controls
Experimental: as §1, §2

VIOTR [8] = experiment: Pre-emergence herbicidal action; format: in vivo, Viola tricolor; settings: scored visually after about 3 weeks vs untreated controls
From the text: as §3, §4

SETVI [9] = experiment: Post-emergence herbicidal action; format: in vivo, Setaria viridis; settings: 80 g/ha, rated visually after about 3 weeks vs untreated controls
Experimental: as §1, §2

VIOTR [10] = experiment: Post-emergence herbicidal action; format: in vivo, Viola tricolor; settings: rated visually after about 3 weeks vs untreated controls
Experimental: as §1, §2

ECHCG = experiment: Post-emergence herbicidal action; format: in vivo, Echinochloa crus-galli; settings: rated visually after about 3 weeks vs untreated controls
Experimental: as §1, §2

STEME [11] = experiment: Pre-emergence herbicidal action; format: in vivo, Stellaria media; settings: scored visually after about 3 weeks vs untreated controls
From the text: as §3, §4

SETVI [12] = experiment: Pre-emergence herbicidal action; format: in vivo, Setaria viridis; settings: pre-emergence, 320 g/ha, scored visually after about 3 weeks vs untreated controls
From the text: as §3, §4

ABUTH [13] = experiment: Pre-emergence herbicidal action; format: in vivo, Abutilon theophrasti; settings: pre-emergence, scored visually after about 3 weeks vs untreated controls
From the text: as §3, §4

MATIN [14] = experiment: Pre-emergence herbicidal action; format: in vivo, Matricaria inodora; settings: pre-emergence, 80 g/ha, scored visually after about 3 weeks vs untreated controls
From the text: as §3, §4

CSc1ccc(C(=O)Nc2nnnn2C)c2c1SCS2 [Example 2-253]
herbicidal activity ABUTH (ABUTH [1]; 20 g/ha): 90%

Cn1nnnc1NC(=O)c1ccc(S(C)(=O)=O)c2c1OC(F)(F)O2 [Example 2-15]
herbicidal activity VERPE (VERPE [2]): 90%
herbicidal activity AMARE (AMARE [3]; 80 g/ha): 80%

Cn1ncnc1NC(=O)c1ccc(C(F)(F)F)c2c1OCS2(=O)=O [Example 1-65]
herbicidal activity PHBPU (PHBPU; 20 g/ha): 80%
herbicidal activity AMARE (AMARE [3]; 20 g/ha): 80%

CCn1nnnc1NC(=O)c1ccc(C(F)F)c2c1OCS2 [Example 3-53]
herbicidal activity ABUTH (ABUTH [1]; 80 g/ha): 90%
herbicidal activity AMARE (AMARE [4]; 320 g/ha): 90%
herbicidal activity STEME (STEME [5]; 80 g/ha): 90%
herbicidal activity VERPE (VERPE [6]): 80%
herbicidal activity MATIN (MATIN [7]): 80%
herbicidal activity VIOTR (VIOTR [8]; 320 g/ha): 100%
herbicidal activity SETVI (SETVI [9]): 80%
herbicidal activity VIOTR (VIOTR [10]; 80 g/ha): 90%
herbicidal activity ECHCG (ECHCG; 80 g/ha): 80%
herbicidal activity AMARE (AMARE [3]; 80 g/ha): 100%

Cn1nnnc1NC(=O)c1ccc(C(F)(F)F)c2c1SCS2 [Example 2-21, 7-(trifluoromethyl)-1,3-benzodithiolane-N-(1-methyltetrazol-5-yl)-4-carboxamide]
herbicidal activity STEME (STEME [5]; 20 g/ha): 80%
herbicidal activity STEME (STEME [11]; 80 g/ha): 90%
herbicidal activity VIOTR (VIOTR [10]; 20 g/ha): 80%

COC1Sc2c(C(=O)Nc3nnnn3C)ccc(C(F)(F)F)c2S1 (stereo not drawn) [Example 2-257]
herbicidal activity ABUTH (ABUTH [1]; 20 g/ha): 90%
herbicidal activity VIOTR (VIOTR [10]; 20 g/ha): 80%
herbicidal activity ECHCG (ECHCG; 20 g/ha): 100%

CC1Oc2c(C(=O)Nc3nnnn3C)ccc(C(F)(F)F)c2S1 (stereo not drawn) [Example 2-94, 2-methyl-4-(trifluoromethyl)-1,3-benzoxathiolane-N-(1-methyltetrazol-5-yl)-7-carboxamide]
herbicidal activity SETVI (SETVI [12]): 100%
herbicidal activity ABUTH (ABUTH [13]; 320 g/ha): 90%
herbicidal activity ABUTH (ABUTH [1]; 80 g/ha): 90%
herbicidal activity AMARE (AMARE [4]; 320 g/ha): 100%
herbicidal activity STEME (STEME [5]; 80 g/ha): 100%
herbicidal activity STEME (STEME [11]; 320 g/ha): 100%
herbicidal activity VIOTR (VIOTR [8]; 320 g/ha): 100%
herbicidal activity SETVI (SETVI [9]): 80%
herbicidal activity VIOTR (VIOTR [10]; 80 g/ha): 80%
herbicidal activity ECHCG (ECHCG; 80 g/ha): 80%
herbicidal activity AMARE (AMARE [3]; 80 g/ha): 90%

Cn1ncnc1NC(=O)c1ccc(C(F)(F)F)c2c1OCS2 [Example 1-35]
herbicidal activity ABUTH (ABUTH [1]; 20 g/ha): 80%
herbicidal activity VIOTR (VIOTR [10]; 20 g/ha): 80%

Cn1nnnc1NC(=O)c1ccc(C(F)(F)F)c2c1S(=O)(=O)CS2(=O)=O [Example 2-43]
herbicidal activity ABUTH (ABUTH [13]; 80 g/ha): 100%
herbicidal activity AMARE (AMARE [4]; 80 g/ha): 100%
herbicidal activity STEME (STEME [11]; 80 g/ha): 90%
herbicidal activity VIOTR (VIOTR [8]; 80 g/ha): 100%
herbicidal activity MATIN (MATIN [14]): 80%
herbicidal activity VIOTR (VIOTR [10]; 20 g/ha): 90%
herbicidal activity AMARE (AMARE [3]; 20 g/ha): 80%

Cc1ccc(C(=O)Nc2nnnn2C)c2c1SCO2 [Example 2-50]
herbicidal activity PHBPU (PHBPU; 80 g/ha): 80%

Cn1nnnc1NC(=O)c1ccc(C(F)F)c2c1OCS2 [Example 2-54]
herbicidal activity ABUTH (ABUTH [1]; 80 g/ha): 80%
herbicidal activity AMARE (AMARE [4]; 320 g/ha): 80%
herbicidal activity VERPE (VERPE [6]): 90%
herbicidal activity PHBPU (PHBPU; 80 g/ha): 80%
herbicidal activity SETVI (SETVI [9]): 90%
herbicidal activity VIOTR (VIOTR [10]; 80 g/ha): 100%
herbicidal activity ECHCG (ECHCG; 80 g/ha): 100%
herbicidal activity AMARE (AMARE [3]; 80 g/ha): 90%

Cn1nnnc1NC(=O)c1ccc(Cl)c2c1[S+]([O-])CS2 (stereo not drawn) [Example 2-254]
herbicidal activity AMARE (AMARE [4]; 80 g/ha): 80%
